Entries after “also recorded” stand apart in the source; their conditions may differ. Ends that are not written are not given here.
Columns and labels:
TGF-β1 [1] = molecular target: T1, TGF-β1 (Homo sapiens, UniProt P01137); assay: Immunofluorescence of p-Smad2 translocation to the nucleus in rabbit corneal fibroblasts; assay type: cell-based; parameters: host or cells: added to a primary culture of rabbit corneal fibroblasts; conditions: TGF-β1 treated rabbit corneal fibroblasts
Method: Therefore, Western Blot and immunofluorescence studies were conducted to determine, from cells extracted from the in vivo studies, the signaling pathway used by the peptides administered topically. It should be emphasized that said studies were conducted on fibroblasts from rabbit cornea and not from rat cornea. This decision was made due to the difficulty entailed in isolating fibroblasts from rodent eyes.
Target sequence in this assay (P01137 279-390 limits assumed, species assumed): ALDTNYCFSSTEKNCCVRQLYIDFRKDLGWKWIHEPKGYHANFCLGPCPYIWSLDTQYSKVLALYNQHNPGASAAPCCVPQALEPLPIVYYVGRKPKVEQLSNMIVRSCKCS

TGF-β1 [2] = molecular target: T1, TGF-β1; assay: Biopanning of phage-displayed 15-aa peptide library on biotinylated TGF-β1, number of colonies per sequence; assay type: binding; parameters: purchased Roche; host or cells: added to Mv-1-Lu (CCL-64) mink lung epithelial cells; conditions: clones carrying the sequence among 108 colonies after the last biopanning cycle; approximate indication of affinity for TGF-β1
From the text: These libraries comprise a plurality of filamentous bacteriophages (M13), each one containing a peptide genetically fused to a protein of the virus envelope—in this case bound to the N-terminal end of envelope protein pIII (FIG. 1). […] In the phage libraries, the sequence encoding the peptide originates from a sequence degenerated in each one of the 15 positions with the 20 natural amino acids, thus allowing the presentation of 1.1×10^12 possible sequences of 15 amino acids in different phages. The physical ratio, 1:1, between the peptide sequence and the DNA encoding it within the bacteriophage allows the selection (from a broad range of variants) of those sequences that specifically bind to TGF-β1. This process is carried out via an in vitro selection protocol known as “biopanning”.
This technique involves incubating a set of phages representative (to practical effects) of all the 15-aa variants, in a plate blocked with streptavidin (10 μg/ml in 0.1 M NaHCO3, during 2 h at room temperature) to which biotinylated TGF-β1 is added. […] TGF-β1 contacts the peptides carried by the phages at a concentration of […]. After about 12 hours incubation, unbound phages are eliminated by 5 washings with PBS/Tween (phosphate buffered saline/polyoxyalkylene derivatives of sorbitan fatty acid esters). […] The eluted phages are then amplified by infection in a bacterial strain (E. coli). The process is repeated three cycles so that an enrichment in the content of phages which specifically bind, and with high affinity, to TGF-β1 is achieved (FIG. 3). […] Thus, the phages selected in each cycle show more and more affinity for TGF-β1. At the end of the process, phages which have been selected for their affinity for TGF-β1, are sequenced by using primers, after isolation by tetracycline resistance of the genetically modified phages after infecting E. coli cells. […] The number of times which a sequence is repeated, corresponding to a 15 amino acids peptide carried by each clone, from the total of sequenced colonies is an indication of the degree of relative affinity of said 15 amino acids sequence for TGF-β1.
The selection of clones, obtained from the “biopanning”, was carried out by selection of the bacterial colonies infected with the phages in the presence of a bacterial antibiotic; the bacteria resistance is acquired by a tetracycline resistance gene encoded by the phage genome. Thus, only those colonies infected with bacteriophages are able to grow. This means that each colony contains the genome of only one phage coding for only one peptide presented in its surface.
A total number of 108 colonies of phage-infected bacteria were obtained from the last selection cycle of “biopanning”. The sequence of the regions coding for the peptides present in the pIII protein was carried out using primers identified with SEQ ID NO: 23. This table also reflects the number of colonies (clones) carrying said sequences.
The number of clones (colonies) of each sequence gives an approximate indication of the degree of affinity of the peptide for TGF-β1, that is, the more colonies the more binding affinity.
Target sequence in this assay (P01137 279-390 limits assumed, species assumed): as above

TGF-β1 [3] = molecular target: T1, TGF-β1; parameters: purchased R&D Systems; host or cells: added to IMR-90 human lung fibroblasts; conditions: lung fibroblasts, Dotor et al. Cytokine 2007; cited from earlier work
Target sequence in this assay (P01137 279-390 limits assumed): as the sequence (P01137 279-390 limits assumed, species assumed) above

TGF-β1 [4] = molecular target: T2, TGF-β1 (Mus musculus, UniProt P04202); assay: Model of acute liver damage induced by CCl4, type I collagen mRNA by real time PCR; assay type: in vivo, mice
T2 construct: from tissue; host or cells: liver of Balb/C mice (CCl4 model); lung of C57BL/6 mice (bleomycin model)
Procedure, shortened: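 Female Balb/C mice (25–30 g) received a single oral dose of CCl4 at 2 µl/g body weight in corn oil (1:1). Peptide was given at 50 µg in 500 µl of 1% saline in DMSO every 24 h. At 72 h, liver type I collagen mRNA was quantified by real-time PCR against corn-oil controls.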

T2 sequence (P04202 279-390 limits assumed): as the sequence (P01137 279-390 limits assumed, species assumed) above, with A75S counted along it

**Q.** For “KRIWFIPRSSWYERA [SEQ ID NO: 17, KRIWFIPRSSWYERA]”, which “translocation of p-Smad2 to the nucleus” value (TGF-β1 [1]) is on record?
**A.** did not inhibit

**Q.** And the No. colonies (TGF-β1 [2])?
**A.** 3

**Q.** And the “Smad2 phosphorylation induced by TGF-β1” value (TGF-β1 [3])?
**A.** decreased

**Q.** And the “% Inhibition of type I collagen mRNA induction (in vivo TGF-β1 biological activity)” value (TGF-β1 [4]; Balb/C mice, oral CCl4, 50 μg of peptide every 24 h, sacrifice after 72 hours)?
**A.** 93.09 ± 9.6%

**Q.** What about the “inhibition of the biological activity of TGF-β1 in vivo (in words)” value (TGF-β1 [4]; acute liver damage, type I collagen mRNA) of the same sequence?
**A.** most active peptide; also recorded: much greater extent; also recorded: inhibitory capacity; also recorded: capable of inhibiting the expression of collagen type I mRNA
